Read-outs that look alike come from different tables or passages of the source.
Columns and labels:
[1] = in vivo; conditions: mouse, po
[2] = in vivo; conditions: guinea pig, po
[3] = in vivo; conditions: rat, po, Acute Oral LD50, rats
[4] = tested on: P. cynomolgi; assay: SEATO suppressive test, P. cynomolgi, rhesus monkey (parasitized blood inoculation, no chloroquine); assay type: in vivo, P. cynomolgi in rhesus monkey
Protocol: Equally significant is the suppressive activity comparison (Part A-2) in the Rhesus monkey. This test differs from the SEATO radical curative test primarily in that parasitemia is induced by intravenous inoculation of parasitized blood (rather than sporozoites) and that chloroquine is not co-administered with the test drug. […] On the other hand, compound 1 is curative at doses down to 1.0 mg/kg/day.

[5] = Acute oral toxicity, rats
[6] = tested on: Plasmodium cynomolgi; conditions: cited from earlier work
[7] = tested on: Plasmodium berghei; conditions: cited from earlier work
[8] = tested on: Plasmodium vivax, P. malariae and P. ovale malaria; conditions: cited from earlier work
[9] = Blood schizonticidal (suppressive) test, Rane mouse test, P. berghei; assay type: in vivo, Plasmodium berghei KBG 173 in ICR/HA Swiss mice; conditions: mouse, in vivo, sc
Text: Blood Schizonticidal Test (Mouse), University of Miami, Rane (Suppressive)
This system is based on comparisons of responses to test compounds by Plasmodium berghei KBG 173 malaria in mice as expressed in mean survival times and the mean survival times of untreated controls. Thus, compounds noted as active produce increases in the survival times of the treated animals that are significant when compared with the survival times of untreated controls. Since an established disease is less sensitive to treatment than a disease in the early stages of development, treatment is withheld until the parasitemia is relatively high in order to insure a more reliable assay of activity and the selection of appropriate compounds for intensive preclinical studies.
Utilizing young ICR/HA Swiss mice and a standard inoculum of Plasmodium berghei KBG 173, it is possible to produce a uniform disease fatal to 100% of untreated animals within 6 to 8 days with a mean survival time of 6.2 days. Test animals weigh from 18 to 22 grams but weight variations in any given experimental or control group are confined to 2-3 grams. All animals in any given test are approximately of the same age. Animals on test are housed in metal-topped plastic cages, given a standard laboratory diet and water ad libitum.
Test animals receive an intraperitoneal injection of 0.5 ml of 1:100 dilution of heparinized heart's blood with a minimum of 90% parasitized cells (4×10^7 cells), drawn from donor mice infected one week earlier with Plasmodium berghei. The donor stran is maintained by weekly passages in separate groups of mice inoculated with a 0.5 ml of 1:500 dilution of heparinized heart's blood.
Test compounds are administered after dissolution or suspension in peanut oil. A single dose is given subcutaneously 72 hours after the mice are infected with Plasmodium berghei. At this time a 10-15 percent parasitemia has developed; the disease is well established but has not produced sufficient debility to alter the response of the host to toxic effects of the drug on test. Since treatment is withheld for three days to permit the infection to become well established and death occurs in untreated controls within 6-8 days, it is believed that this system presents a candidate compound with the maximum challenge. In order to check factors such as changes in the infectivity of Plasmodium berghei or in the susceptibility of the host or to detect technical errors, a group of infected animals treated with pyrimethamine at dose levels producing definite increases in survival time is included as a positive control in every experiment.
In each experiment test compounds are administered in graded doses. […] However, if an active drug is toxic for the host, its toxicity may become a limiting factor; continued increases in dose levels also increase the toxic effects and may result in the diminution of survival times. Deaths prior to the sixth day, when untreated controls begin to die, are regarded as non-parasitic and become the basis for toxicity evaluations. Treated animals are kept under observation for 60 days. Survivors at the end of this period of time are considered as cured.
An increase of 100% in mean survival time is considered the minimum effective response for a candidate compound. In calculating mean survival time, toxic deaths and 60 day survivors are not included.
The antimalarial activity data acquired by the two test procedures described above are listed in Tables 2 and 3 for the compounds of this invention. In Table 4, the most promising compound of the series, compound 1, is compared directly with primaquine together with some additional test data for compound 1 compared to primaquine. In all the work reported herein primaquine is used in the form of the diphosphate salt. The test data are expressed in the form of the number of cures at a given dose level. […]

COc1cc(NC(C)CCCN)c2nccc(C)c2c1Oc1cccc(C(F)(F)F)c1.O=C(O)CCC(=O)O (centres unmarked) [Compound 1, 8-(4-Amino-1-methylbutylamino)-6-methoxy-4-methyl-5-(3-trifluoromethylphenoxy)quinoline Succinate]
LD50 [1]: 236 mg/kg | LD50 [2]: 174 mg/kg | LD50 ([3]; female): 577 mg/kg | LD50 ([3]; male): 259 mg/kg | minimal effective dose ([4]; Plasmodium cynomolgi, in Macaca mulatta, po, curative at doses down to, read-out: Lowest curative dose, suppressive test in rhesus): 1 mg/kg/day | LD50 ratio Compound 1/Primaquine ([5]; rats, female): 2.76 | LD50 ratio Compound 1/Primaquine ([5]; rats, male): 1.46

COc1cc(NC(C)CCCN)c2ncccc2c1 (centres unmarked) [Primaquine Diphosphate, 8-((4-amino-1-methylbutyl)amino)-6-methoxy-quinoline, reference compound]
Radical curative activity ([6]; 0.316 mg/kg, prior art comparison): inactive | Radical curative activity, cures ([6]; 1.0 mg/kg (× 7), Table I): 1/2 | % cures (radical curative) ([6]; 1.0 mg/kg): 50% | % cures (radical curative) ([6]; 1.3 mg/kg): 100% | Δ MST ([7]; 160 mg/kg, 5 mice, Table I): 9 days | Toxic deaths ([7]; 640 mg/kg, 5 mice, Table I): 5T | Suppressive activity ([7]; non-toxic dose levels, prior art comparison): very weak activity | Radical curative (tissue) activity ([8]; clinical use): effective in clearing the tissues of parasites | Suppressive activity (blood schizonticide) ([8]; clinical use): relatively ineffective as a blood schizonticide | Toxicity in man ([8]; single curative dose): precludes administration of a single curative dose | Cures, suppressive test in rhesus ([4]; all doses, oral, × 7 days): No Cures | Suppressive activity in the rhesus ([4]; in words): failed to clear the blood schizonts completely | mortality ([9]; 320 mg/kg × 1, s.c., five mice, Table III, read-out: Toxic (converted)): 40% | mortality ([9]; 640 mg/kg salt, s.c., Table IV A-1, read-out: Toxic deaths (converted)): 100% | LD50 ([5]; rat, in vivo, po): 224 mg/kg | Acute Oral LD50 ([5]; rats, male): 177 mg/kg

— patent publication US4431807A, “4-Methyl-5-(unsubstituted and substituted phenoxy)-6-methoxy-8-(aminoalkylamino)quinolines” (priority 1981, dated 1984)
